pEC50, pIC50: −log10 of the molar value.
How the values were obtained:
[1] = biological target: 5-hydroxytryptamine receptor 1D (Cavia porcellus, UniProt Q60484); assay: Compound was tested for the inhibition of forskolin-stimulated adenylate cyclase at 5-hydroxytryptamine 1D receptor in guinea pig substantia nigra
[2] = biological target: T1, 5-hydroxytryptamine receptor 1A (Rattus norvegicus, UniProt P19327); assay: Tested in vitro for receptor binding affinity to 5-hydroxytryptamine 1A receptor in rat cortex using [3H]OH-DPAT radioligand
T1 sequence (P19327 whole entry): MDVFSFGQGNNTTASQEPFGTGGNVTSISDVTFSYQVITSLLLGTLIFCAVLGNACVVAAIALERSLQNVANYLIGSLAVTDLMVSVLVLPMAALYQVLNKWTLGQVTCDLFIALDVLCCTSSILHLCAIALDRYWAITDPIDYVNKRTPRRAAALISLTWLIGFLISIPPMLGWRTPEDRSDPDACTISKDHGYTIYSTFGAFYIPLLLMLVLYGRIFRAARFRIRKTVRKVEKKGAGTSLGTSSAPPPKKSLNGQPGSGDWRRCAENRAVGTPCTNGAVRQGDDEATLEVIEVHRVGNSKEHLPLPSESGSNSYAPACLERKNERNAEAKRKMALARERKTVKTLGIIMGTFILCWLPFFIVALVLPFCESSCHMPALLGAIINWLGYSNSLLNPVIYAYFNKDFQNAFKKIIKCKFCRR

[3] = biological target: GABA-A receptor; anion channel; assay: In vitro displacement of [3H]flunitrazepam from GABA-A central benzodiazepine receptor of guinea pig cerebellum; format: tissue-based, Cavia porcellus

5-hydroxytryptamine receptor 1D, sequence (Q60484 whole entry): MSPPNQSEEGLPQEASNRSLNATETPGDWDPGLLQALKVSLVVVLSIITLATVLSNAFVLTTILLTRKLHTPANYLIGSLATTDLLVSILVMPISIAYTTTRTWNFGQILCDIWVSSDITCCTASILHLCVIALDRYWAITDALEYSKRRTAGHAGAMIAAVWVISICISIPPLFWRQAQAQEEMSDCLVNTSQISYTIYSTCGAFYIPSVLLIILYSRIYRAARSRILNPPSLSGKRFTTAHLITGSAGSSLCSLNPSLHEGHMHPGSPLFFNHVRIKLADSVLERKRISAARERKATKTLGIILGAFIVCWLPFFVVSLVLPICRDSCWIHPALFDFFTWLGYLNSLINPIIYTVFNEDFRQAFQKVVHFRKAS

Row | Structure (SMILES) | pEC50 [1] | pIC50 [2] | pIC50 [3]
1 | CN(C)CCc1c[nH]c2ccc(-n3cnc4cccnc43)cc12 | 7.85 | 6.68 | 7.05
2 | NCCc1c[nH]c2ccc(O)cc12 [SEROTONIN] | 8.07 | – | –
3 | CN1CCC[C@@H]1Cc1c[nH]c2ccc(-n3cnc4cc(C#N)ccc43)cc12 | 10.38 | 7.70 | 8.48
